Measurements reported in patent US20100028366A1, “SYNERGISTIC EFFECT BETWEEN A […] AND ANOTHER OXIDATIVE INDUCING SYSTEM FOR TREATING TUMORS” (priority 2005, published 2010).

Tests used:
GB-LP-1 cells = assay: Survival by MTT of GB-LP-1 explant cells infected with adenolis; format: cell-based, human; details: 500 μg/ml linamarin; even at MOI: 1
Procedure: The behavior of the lis/lin therapy in one of the explants (GB-LP-1) was additionally analyzed. These cells were infected with adenolis (MOI: 0, 1, 12, 100 and 500) and the survival and production of cyanide after the addition of 500 μg/ml linamarin (FIGS. 6G and 6H, respectively) were studied.
10^5 cells (W&W and patient explants) were seeded in test tubes with a flat side and screw-on cap (Nunc), or 5×10^4 cells were seeded on cover slips in 24-well plates and were simultaneously infected with adenolis (Crucell) at different multiplicities of infection (MOI: 0; 0.2; 1; 10; 100 or 500). For the cells seeded in test tubes, the medium was changed after 24 hours adding 0.5 mg/ml of linamarin where appropriate. A cell viability assay was conducted with MTT at 96 hours after the addition of linamarin. 48 hours after infection the cells seeded in the cover slips were processed to perform immunofluorescence to detect linamarase.

W&Wlis cells [1] = assay: DNA content analysis by flow cytometry, labeling with propidium iodide; format: cell-based, canine; parameters: unit not given here; details: Without GO
W&Wlis cells [2] = assay: Measurement of intracellular ATP; format: cell-based, canine; details: linamarin (500 μg/ml) and/or glucose oxidase (5 mEU/ml), over time, versus untreated cells
Procedure: The levels of intracellular energy in the form of ATP decrease when a blockage of the mitochondrial electron transport chain occurs since it is the essential source of obtaining energy of the cells. […] This effect is due to the fact that the maximum H2O2 production by glucose oxidase occurs at short times because the cells have the ability of detoxifying the peroxide and due to the fact that glucose oxidase is inactivated over time by the serum proteins.
10^5 W&Wlis cells were seeded in test tubes with a screw-on cap and flat side (Nunc). After 24 hours, the medium was changed, adding linamarin (500 μg/ml) and glucose oxidase (5 mEU/ml) where appropriate. After 4, 8, 12, 24, 48 or 72 hours, the cells were centrifuged and processed following the instructions of the ATP Bioluminescence Assay Kit CLS II, of Roche Applied Science. The luminescence was analyzed with a Monolight 2010 luminometer (Analytical Luminescence Laboratory, San Diego) and expressed in relative light units (RLU).

W&Wlis cells [3] = assay: Structural modifications of the mitochondrion (pDsRed2-mito, confocal microscopy); format: cell-based, canine; details: linamarin 500 μg/ml from 48 hours; glucose oxidase 5 mEU/ml; combination after 24 hours
Procedure: For the purpose of studying the mitochondrial dynamics occurring as a result of the oxidative stress caused by the activity of the claimed system, W&Wlis cells were stably transfected with the plasmid pdsRed2-mito (Clontech) containing the gene of the one red fluorescent protein carried by a transport signal peptide to the mitochondrion. This allowed viewing the mitochondria of cells treated with linamarin and glucose oxidase by fluorescence microscopy. […] This effect starts to be observed 48 hours after treatment with linamarin (FIG. 1B) and becomes more pronounced after 72 hours, a slight swelling of the fragments (FIG. 1C) being observed.
To study the structural modifications of the mitochondrion during therapy, the W&W and W&Wlis cells were transfected with the plasmid pDsRed2-mito (Clontech, BD Bioscience) containing the gene of a red fluorescent protein which is expressed exclusively in mitochondria. The transfection was performed similarly to the previous section and clones were selected by resistance to neomycin (0.75 and 1.5 mg/ml respectively). The cells from stable expression clones of the protein were seeded in multiwell plates on cover slips (2.5×10^4) and were treated with linamarin (50, 200 or 500 μg/ml) and glucose oxidase (5 mEU/ml). After the suitable incubation time for each experiment (24, 48 or 72 hours) elapsed, the cells were fixed with 4% paraformaldehyde. […]

W&Wlis cells [4] = assay: Cell viability analysis by MTT; format: cell-based, canine
Procedure: The mitochondrial enzymatic activity as indicative of cell viability was determined by means of using tetrazolium salts. In this assay 10^5 cells/test tube (culture test tubes with a flat side and screw-on cap to prevent the exit of HCN; Nunc) or 10^4 cells/well of 24-well plates closed with parafilm were seeded. After 24 hours of incubation fresh culture medium supplemented with the concentrations of linamarin (between 50 and 500 μg/ml) and glucose oxidase (5 mEU/ml) necessary for each experiment was added. In the assays in which it applied, the medium was supplemented with N-acetyl cysteine (10 mM), 1,5-isoquinolinediol (300 μM) or Z-VAD-fmk (100 μM). After the time stipulated in each experiment (between 12 and 96 hours), the culture medium was removed and fresh medium with 200 μg/mL of MTT (3-[4,5-dimethylthiazo-2-yl]-2,5-diphenyl tetrazolium bromide) was added. After 1.5 hours of incubation, the medium was removed and 3 ml (for the test tubes) or 1 ml (for the 24-well plates) of dimethyl sulfoxide was added to dissolve the formazan. After 10 minutes, the absorbance of the samples at 540 nm was determined. MTT is a tetrazolium salt soluble in aqueous medium (yellow) which is transformed by the mitochondrial dehydrogenases in formazan, an insoluble compound in aqueous medium (purple).

Question: How did the “sensitivity of adenolis-infected cells to linamarin (survival)” value (GB-LP-1 cells) turn out when `CC(C)(C#N)O[C@@H]1O[C@H](CO)[C@@H](O)[C@H](O)[C@H]1O` [lin, 2-hydroxy-isobutyronitrile-β-D-glucopyranoside] was run?
Answer: very sensitive to treatment with linamarin

Question: And the “DNA content by flow cytometry, labeling with propidium iodide” value (from here on “DNA content by flow cytometry, labeling”) (W&Wlis cells [1]; 50 μg lin, 48 hours)?
Answer: 1.95

Question: And the “DNA content by flow cytometry, labeling” value (W&Wlis cells [1]; 50 μg lin, 72 hours)?
Answer: 2.77

Question: What about the “DNA content by flow cytometry, labeling” value (W&Wlis cells [1]; 200 μg lin, 48 hours) of the same compound?
Answer: 1.89

Question: And the “DNA content by flow cytometry, labeling” value (W&Wlis cells [1]; 200 μg lin, 72 hours)?
Answer: 3.14

Question: What about the “DNA content by flow cytometry, labeling” value (W&Wlis cells [1]; 500 μg lin, 48 hours) of the same compound?
Answer: 3.21

Question: What about the “DNA content by flow cytometry, labeling” value (W&Wlis cells [1]; 500 μg lin, 72 hours) of the same compound?
Answer: 4.91

Question: And the “intracellular ATP levels” value (W&Wlis cells [2])?
Answer: progressive and rapid depletion of ATP which becomes almost complete after 48 hours

Question: And the mitochondrial pattern (W&Wlis cells [3])?
Answer: dotted pattern

Question: What about the “effect of NAC addition on death in the cell viability assay by MTT” value (W&Wlis cells [4]; 10 mM N-acetyl cysteine (NAC) in the medium) of the same compound?
Answer: did not cause any effect

Question: What about the “cell survival by MTT” value (W&Wlis cells [4]; 96 hours, linamarin 200 to 500 μg/ml, without GO) of the same compound?
Answer: drastic reduction of the survival

Question: And the “time after which cell viability begins to decrease (MTT)” value (W&Wlis cells [4]; linamarin alone, or combined therapy at 500 μg/ml linamarin with 5 mEU/ml glucose oxidase)?
Answer: 48 h
